In patent US20250215010A1, “DIAZABICYCLOOCTANE DERIVATIVES USEFUL AS MATRIX METALLOPROTEINASE INHIBITORS” (VASA THERAPEUTICS SPOLKA Z OGRANICZONA ODPOWIEDZIALNOSCIA, priority 2022, published 2025):

What was measured:
Assay type in all cases: biochemical
ADAM17 (TACE) = ADAM17 (TACE) (Homo sapiens, UniProt P78536); test: TACE fluorometric inhibition assay (Enzo kit BML-AK310); conditions: quenched fluorogenic peptide, ex/em 320/420 nm; read-out: TACE IC50 class
Summary of the method: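 Kit-based TACE assay run per manufacturer's protocol, using quenched fluorogenic peptide Mca-PLAQAV-Dpa-RSSSR-NH2 whose cleavage raises Mca fluorescence. Signal read at ex/em 320/420 nm; IC50 (nM) derived from inhibition curves of normalized values.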

MMP9 = MMP9 (Homo sapiens, UniProt P14780); test: MMP-9 colorimetric inhibition assay (Enzo kit BML-AK410); conditions: thiopeptide substrate, absorbance 415 nm; read-out: MMP 9 IC50 class
Summary of the method: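 Colorimetric thioester-substrate assay: hydrolysis of Ac-PLG-[2-mercapto-4-methylpentanoyl]-LG-OC2H5 frees a thiol that reacts with DTNB, read at 415 nm. Run per kit protocol. IC50 (nM) taken from inhibition curves of normalized values.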

ADAM10 = molecular target: T1, ADAM10 (Homo sapiens, UniProt O14672); test: SensoLyte 520 ADAM10 fluorometric activity assay (AnaSpec AS-72226); conditions: FRET peptide substrate, ex/em 495/520 nm; read-out: ADAM 10 IC50 class
T1 construct: purchased AnaSpec, Inc. AS-72226
T1 sequence (O14672 214-748): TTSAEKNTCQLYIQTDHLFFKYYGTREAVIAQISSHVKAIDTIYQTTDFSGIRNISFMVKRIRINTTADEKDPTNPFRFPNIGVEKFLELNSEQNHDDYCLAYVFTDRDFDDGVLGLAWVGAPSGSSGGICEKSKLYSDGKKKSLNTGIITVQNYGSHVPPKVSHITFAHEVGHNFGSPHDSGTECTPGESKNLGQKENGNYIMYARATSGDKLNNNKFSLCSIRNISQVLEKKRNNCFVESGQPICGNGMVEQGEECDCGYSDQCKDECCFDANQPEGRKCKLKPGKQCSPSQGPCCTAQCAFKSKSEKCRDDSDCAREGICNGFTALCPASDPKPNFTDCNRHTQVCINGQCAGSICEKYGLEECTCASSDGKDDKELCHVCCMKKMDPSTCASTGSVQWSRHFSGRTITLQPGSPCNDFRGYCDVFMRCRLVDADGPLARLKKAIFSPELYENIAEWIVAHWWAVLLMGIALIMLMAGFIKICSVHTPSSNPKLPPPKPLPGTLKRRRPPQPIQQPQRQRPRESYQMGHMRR
Protocol: The inhibitory activities of the compounds of the invention were assessed in 96-well microplate format using MMP1, MMP2, MMP9 and MMP13 colorimetric assay kits and TACE fluorometric assay kit from Enzo Life Sciences, Inc. The inhibitory effect of the compounds of the invention on ADAM10 activity were evaluated in 96-well microplate format using fluorometric assay from AnaSpec, Inc.
SensoLyte® 520 ADAM10 Activity Assay Kit (catalog #AS-72226) is a complete assay system designed to screen ADAM10 inhibitors using FRET-based peptide substrate containing the 5-FAM/QXL™ 520 fluorophore/quencher pair. The fluorescence of 5-FAM is quenched by QXL™ 520 and recovered upon cleavage of the peptide by active ADAM10.
The inhibitory activity of the compounds of the invention against ADAM10 was tested according to the manufacturer's assay protocol and the fluorescence was monitored at excitation/emission wavelengths=495 nm/520 nm using Tecan Infinite® 200 Pro F Nano^+ microplate reader.
The normalized values were analyzed using GraphPadPrism 9 for Windows (GraphPad Software, San Diego, CA, USA) software by plotting inhibition curves and determining the IC50 values (in nM).

MMP13 = molecular target: T2, MMP13 (Homo sapiens, UniProt P45452); test: MMP-13 colorimetric inhibition assay (Enzo kit BML-AK412); conditions: thiopeptide substrate, absorbance 415 nm; read-out: MMP 13 IC50 class
T2 construct: purchased Enzo Life Sciences, Inc. BML-AK412
Summary of the method: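 Thiopeptide chromogenic substrate (Ac-PLG-[2-mercapto-4-methylpentanoyl]-LG-OC2H5); MMP-13 hydrolysis of the thioester yields a thiol that reacts with DTNB, read at 415 nm. IC50 values (nM) derived from inhibition curves of normalized data.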

MMP1 = molecular target: T3, MMP1 (Homo sapiens, UniProt P03956); test: MMP-1 colorimetric inhibition assay (Enzo kit BML-AK404); conditions: thiopeptide substrate, absorbance 415 nm; read-out: MMP 1 IC50 class
T3 sequence (P03956 100-269 limits assumed): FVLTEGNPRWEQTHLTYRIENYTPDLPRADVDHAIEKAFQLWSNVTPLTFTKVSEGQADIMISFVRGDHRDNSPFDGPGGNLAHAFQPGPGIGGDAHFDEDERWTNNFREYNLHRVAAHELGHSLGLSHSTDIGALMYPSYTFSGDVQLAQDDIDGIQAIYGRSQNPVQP
Summary of the method: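 Colorimetric kit run per manufacturer protocol. MMP-1 cleaves a thiopeptide substrate (Ac-PLG-[2-mercapto-4-methylpentanoyl]-LG-OC2H5); released thiol reacts with DTNB, monitored at 415 nm. IC50 (nM) from inhibition curves of normalized values.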

MMP2 = molecular target: T4, MMP2 (Homo sapiens, UniProt P08253); test: MMP-2 colorimetric inhibition assay (Enzo kit BML-AK408); conditions: thiopeptide substrate, absorbance 415 nm; read-out: MMP 2 IC50 class
T4 sequence (P08253 110-660): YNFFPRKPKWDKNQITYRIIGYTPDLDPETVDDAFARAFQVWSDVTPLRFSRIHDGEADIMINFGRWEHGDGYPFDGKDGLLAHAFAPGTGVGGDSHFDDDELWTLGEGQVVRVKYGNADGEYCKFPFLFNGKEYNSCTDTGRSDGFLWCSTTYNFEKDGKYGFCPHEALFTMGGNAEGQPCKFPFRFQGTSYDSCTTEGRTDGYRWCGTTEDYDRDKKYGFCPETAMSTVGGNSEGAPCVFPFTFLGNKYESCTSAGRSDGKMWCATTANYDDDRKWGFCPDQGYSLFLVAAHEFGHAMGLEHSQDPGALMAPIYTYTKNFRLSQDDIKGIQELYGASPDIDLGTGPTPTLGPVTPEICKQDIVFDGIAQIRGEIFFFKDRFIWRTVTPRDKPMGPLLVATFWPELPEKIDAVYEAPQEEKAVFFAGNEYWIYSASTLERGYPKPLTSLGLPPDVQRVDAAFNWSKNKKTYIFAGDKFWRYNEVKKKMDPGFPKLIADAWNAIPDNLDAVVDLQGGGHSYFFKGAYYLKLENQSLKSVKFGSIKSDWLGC
Summary of the method: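 Cleavage of the thiopeptide Ac-PLG-[2-mercapto-4-methylpentanoyl]-LG-OC2H5 releases a sulfhydryl that reacts with DTNB, read at 415 nm per the kit protocol. IC50 values (nM) come from inhibition curves of normalized data.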

Chain of ADAM17 (TACE) (P78536 215-477 limits assumed): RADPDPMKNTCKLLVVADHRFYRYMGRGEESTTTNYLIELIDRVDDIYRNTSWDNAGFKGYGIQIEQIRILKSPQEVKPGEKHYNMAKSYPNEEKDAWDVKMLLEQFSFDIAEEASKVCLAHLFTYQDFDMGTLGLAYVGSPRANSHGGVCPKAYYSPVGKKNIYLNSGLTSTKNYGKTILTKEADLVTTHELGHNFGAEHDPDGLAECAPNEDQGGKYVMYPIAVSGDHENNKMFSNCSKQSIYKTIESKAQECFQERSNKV
Chain of MMP9 (P14780 94-707): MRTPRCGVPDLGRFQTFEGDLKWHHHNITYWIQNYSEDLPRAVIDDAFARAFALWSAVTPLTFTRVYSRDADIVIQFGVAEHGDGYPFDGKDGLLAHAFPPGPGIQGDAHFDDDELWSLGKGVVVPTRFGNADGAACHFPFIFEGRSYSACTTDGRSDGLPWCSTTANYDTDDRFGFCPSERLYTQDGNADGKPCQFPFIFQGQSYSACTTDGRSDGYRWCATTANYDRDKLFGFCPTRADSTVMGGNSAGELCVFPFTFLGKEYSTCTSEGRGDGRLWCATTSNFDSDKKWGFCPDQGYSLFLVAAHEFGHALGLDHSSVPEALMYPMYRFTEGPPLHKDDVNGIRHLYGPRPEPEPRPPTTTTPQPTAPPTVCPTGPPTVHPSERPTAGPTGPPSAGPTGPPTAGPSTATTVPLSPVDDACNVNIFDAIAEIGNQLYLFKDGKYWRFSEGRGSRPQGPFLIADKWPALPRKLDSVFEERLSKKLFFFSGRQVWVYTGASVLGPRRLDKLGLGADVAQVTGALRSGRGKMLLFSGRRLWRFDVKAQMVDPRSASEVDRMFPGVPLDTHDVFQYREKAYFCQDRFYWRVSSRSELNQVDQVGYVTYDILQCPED

## COCCOC(=O)N1[C@@H]2CC[C@H]1[C@H](C(=O)NO)N(S(=O)(=O)c1ccc(Oc3ccc(OC(F)F)cc3)nc1)C2 [Example 24, 2-methoxyethyl (1S,2R,5R)-3-((6-(4-(difluoromethoxy)phenoxy)pyridin-3-yl)sulfonyl)-2-(hydroxycarbamoyl)-3,8-diazabicyclo[3.2.1]octane-8-carboxylate]
ADAM17 (TACE)
  IC50: 0.05 to 1 µM
MMP9
  IC50: < 0.05 µM
ADAM10
  IC50: 1 to 10 µM
MMP13
  IC50: < 0.05 µM
MMP1
  IC50: 1 to 10 µM
MMP2
  IC50: < 0.05 µM

## CC(=O)N1[C@@H]2CC[C@H]1[C@H](C(=O)NO)N(S(=O)(=O)c1ccc(Oc3ccc(OC(F)(F)F)cc3)nc1)C2 [Example 54, (1S,2R,5R)-8-acetyl-N-hydroxy-3-((6-(4-(trifluoromethoxy)-phenoxy)pyridin-3-yl)sulfonyl)-3,8-diazabicyclo[3.2.1]-octane-2-carboxamide]
ADAM17 (TACE)
  IC50: 1 to 10 µM
MMP9
  IC50: < 0.05 µM
ADAM10
  IC50: > 10 µM
MMP13
  IC50: < 0.05 µM
MMP1
  IC50: 1 to 10 µM
MMP2
  IC50: < 0.05 µM

## COCCOC(=O)N1[C@@H]2CC[C@H]1[C@H](C(=O)NO)N(S(=O)(=O)c1ccc(Oc3ccc(Cl)cc3)nc1)C2 [Example 8, 2-methoxyethyl (1S,2R,5R)-3-((6-(4-chlorophenoxy)pyridin-3-yl)sulfonyl)-2-(hydroxycarbamoyl)-3,8-diazabicyclo-[3.2.1]octane-8-carboxylate]
ADAM17 (TACE)
  IC50: 0.05 to 1 µM
MMP9
  IC50: < 0.05 µM
ADAM10
  IC50: 1 to 10 µM
MMP13
  IC50: < 0.05 µM
MMP1
  IC50: 0.05 to 1 µM
MMP2
  IC50: < 0.05 µM

## CC(=O)N1[C@@H]2CC[C@H]1[C@H](C(=O)NO)N(S(=O)(=O)c1ccc(Oc3ccc(OCC(F)(F)F)cc3)nc1)C2 [Example 62, (1S,2R,5R)-8-acetyl-N-hydroxy-3-((6-(4-(2,2,2-trifluoro-ethoxy)phenoxy)-pyridin-3-yl)-sulfonyl)-3,8-diazabicyclo[3.2.1]-octane-2-carboxamide]
ADAM17 (TACE)
  IC50: > 10 µM
MMP9
  IC50: < 0.05 µM
ADAM10
  IC50: > 10 µM
MMP13
  IC50: < 0.05 µM
MMP1
  IC50: 1 to 10 µM
MMP2
  IC50: < 0.05 µM

## CCc1ccc(Oc2ccc(S(=O)(=O)N3C[C@H]4CC[C@@H]([C@@H]3C(=O)NO)N4C(=O)OCCOC)cn2)cc1 [Example 33, 2-methoxyethyl (1S,2R,5R)-3-((6-(4-ethylphenoxy)pyridin-3-yl)sulfonyl)-2-(hydroxycarbamoyl)-3,8-diazabicyclo-[3.2.1]octane-8-carboxylate]
ADAM17 (TACE)
  IC50: 1 to 10 µM
MMP9
  IC50: < 0.05 µM
ADAM10
  IC50: > 10 µM
MMP13
  IC50: < 0.05 µM
MMP1
  IC50: 1 to 10 µM
MMP2
  IC50: < 0.05 µM

## COCCOC(=O)N1[C@@H]2CC[C@H]1[C@H](C(=O)NO)N(S(=O)(=O)c1ccc(Oc3ccc(OC(C)(C)C)cc3)nc1)C2 [Example 31, 2-methoxyethyl (1S,2R,5R)-3-((6-(4-(tert-butoxy)-phenoxy)pyridin-3-yl)sulfonyl)-2-(hydroxycarbamoyl)-3,8-diazabicyclo-[3.2.1]octane-8-carboxylate]
ADAM17 (TACE)
  IC50: > 10 µM
MMP9
  IC50: < 0.05 µM
ADAM10
  IC50: > 10 µM
MMP13
  IC50: < 0.05 µM
MMP1
  IC50: > 10 µM
MMP2
  IC50: < 0.05 µM

## COc1ccc(Oc2ccc(S(=O)(=O)N3C[C@H]4CC[C@@H]([C@@H]3C(=O)NO)N4C(=O)N3CCOCC3)cn2)cc1F [Example 73, (1S,2R,5R)-3-((6-(3-fluoro-4-methoxy-phenoxy)pyridin-3-yl)-sulfonyl)-N-hydroxy-8-(morpholine-4-carbonyl)-3,8-diazabicyclo[3.2.1]-octane-2-carboxamide]
ADAM17 (TACE)
  IC50: 1 to 10 µM
MMP9
  IC50: < 0.05 µM
ADAM10
  IC50: 1 to 10 µM
MMP13
  IC50: < 0.05 µM
MMP1
  IC50: > 10 µM
MMP2
  IC50: < 0.05 µM

## CCOC(=O)N1[C@@H]2CC[C@H]1[C@H](C(=O)NO)N(S(=O)(=O)c1ccc(Oc3ccc(F)cc3)nc1)C2 [Example 65, ethyl (1S,2R,5R)-3-((6-(4-fluorophenoxy)pyridin-3-yl)sulfonyl)-2-(hydroxycarbamoyl)-3,8-diazabicyclo[3.2.1]octane-8-carboxylate]
ADAM17 (TACE)
  IC50: 1 to 10 µM
MMP9
  IC50: < 0.05 µM
ADAM10
  IC50: > 10 µM
MMP13
  IC50: < 0.05 µM
MMP1
  IC50: 0.05 to 1 µM
MMP2
  IC50: < 0.05 µM

## COCCOC(=O)N1[C@@H]2CC[C@H]1[C@H](C(=O)NO)N(S(=O)(=O)c1ccc(Oc3ccc(Cl)c(F)c3)nc1)C2 [Example 9, 2-methoxyethyl (1S,2R,5R)-3-((6-(4-chloro-3-fluoro-phenoxy)pyridin-3-yl)sulfonyl)-2-(hydroxycarbamoyl)-3,8-diaza-bicyclo[3.2.1]octane-8-carboxylate]
ADAM17 (TACE)
  IC50: 0.05 to 1 µM
MMP9
  IC50: < 0.05 µM
ADAM10
  IC50: 1 to 10 µM
MMP13
  IC50: < 0.05 µM
MMP1
  IC50: 0.05 to 1 µM
MMP2
  IC50: < 0.05 µM

## COCCOC(=O)N1[C@@H]2CC[C@H]1[C@H](C(=O)NO)N(S(=O)(=O)N1CCC(Oc3ccc(F)cc3)CC1)C2 [Example 45, 2-methoxyethyl (1S,2R,5R)-3-((4-(4-fluoro-phenoxy)-piperidin-1-yl)-sulfonyl)-2-(hydroxy-carbamoyl)-3,8-diazabicyclo-[3.2.1]octane-8-carboxylate]
ADAM17 (TACE)
  IC50: 0.05 to 1 µM
MMP9
  IC50: < 0.05 µM
ADAM10
  IC50: 1 to 10 µM
MMP13
  IC50: < 0.05 µM
MMP1
  IC50: 0.05 to 1 µM
MMP2
  IC50: < 0.05 µM

## COCCOC(=O)N1[C@@H]2CC[C@H]1[C@H](C(=O)NO)N(S(=O)(=O)c1ccc(Oc3ccc(OC(C)C)cc3)nc1)C2 [Example 30, 2-methoxyethyl (1S,2R,5R)-2-(hydroxycarbamoyl)-3-((6-(4-isopropoxy-phenoxy)pyridin-3-yl)sulfonyl)-3,8-diazabicyclo[3.2.1]-octane-8-carboxylate]
ADAM17 (TACE)
  IC50: 1 to 10 µM
MMP9
  IC50: < 0.05 µM
ADAM10
  IC50: > 10 µM
MMP13
  IC50: < 0.05 µM
MMP1
  IC50: 0.05 to 1 µM
MMP2
  IC50: < 0.05 µM
